Measured values from patent US20070004660A1, “Synergistic Modulation of Flt3 Kinase Using Alkylquinolines and Alkylquinazolines” (priority 2005, published 2007).

What was measured:
[1] = tested on: MV4-11 cells; assay: Inhibition of MV4-11 cell proliferation (CellTiterGlo, 72 h); assay type: cell-based; details: Homo sapiens; 72 h growth inhibition; uncertainty ±20%
Protocol: MV4-11 cells cannot grow and survive without active FLT3ITD.
To measure proliferation inhibition by test compounds, the luciferase based CellTiterGlo reagent (Promega), which quantifies total cell number based on total cellular ATP concentration, was used. Cells are plated at 10,000 cells per well in 100 ul of in RPMI media containing penn/strep, 10% FBS and 1 ng/ml GM-CSF or 1 ng/ml IL-3 for MV4-11 and Baf3 cells respectively.
Compound dilutions or 0.1% DMSO (vehicle control) are added to cells and the cells are allowed to grow for 72 hours at standard cell growth conditions (37° C., 5% CO2). For activity measurements in MV4-11 cells grown in 50% plasma, cells were plated at 10,000 cells per well in a 1:1 mixture of growth media and human plasma (final volume of 100 μL). To measure total cell growth an equal volume of CellTiterGlo reagent was added to each well, according to the manufacturer's instructions, and luminescence was quantified. Total cell growth was quantified as the difference in luminescent counts (relative light units, RLU) of cell number at Day 0 compared to total cell number at Day 3 (72 hours of growth and/or compound treatment). One hundred percent inhibition of growth is defined as an RLU equivalent to the Day 0 reading. Zero percent inhibition was defined as the RLU signal for the DMSO vehicle control at Day 3 of growth. All data points are an average of triplicate samples. […] Inhibition and IC50 data analysis was done with GraphPad Prism using a non-linear regression fit with a multiparamater, sigmoidal dose-response (variable slope) equation.
MV4-11 cells express the FLT3 internal tandem duplication mutation, and thus are entirely dependent upon FLT3 activity for growth. […] In contrast, the Baf3 cell proliferation is driven by the cytokine IL-3 and thus are used as a non-specific toxicity control for test compounds.

[2] = target: T1, isolated kinase domain of the human FLT3 receptor (a.a. 571-993) (Homo sapiens, UniProt P36888); assay: FLT3 fluorescence polarization kinase assay; assay type: biochemical; details: 150 uM ATP; uncertainty ±10%
T1 construct: human FLT3 receptor (a.a. 571-993)
T1 sequence (P36888 571-993): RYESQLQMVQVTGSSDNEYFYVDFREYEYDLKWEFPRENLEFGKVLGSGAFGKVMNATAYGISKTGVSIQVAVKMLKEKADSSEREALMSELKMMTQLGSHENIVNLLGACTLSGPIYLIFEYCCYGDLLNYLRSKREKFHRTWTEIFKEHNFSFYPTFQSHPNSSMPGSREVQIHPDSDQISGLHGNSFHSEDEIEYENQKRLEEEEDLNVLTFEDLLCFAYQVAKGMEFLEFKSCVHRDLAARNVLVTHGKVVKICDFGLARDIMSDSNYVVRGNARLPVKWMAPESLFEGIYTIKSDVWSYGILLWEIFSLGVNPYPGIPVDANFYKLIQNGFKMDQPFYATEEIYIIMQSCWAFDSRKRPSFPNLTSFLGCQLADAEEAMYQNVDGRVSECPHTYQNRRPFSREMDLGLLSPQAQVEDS
Protocol: The FLT3 FP assay utilizes the fluorescein-labeled phosphopeptide and the anti-phosphotyrosine antibody included in the Panvera Phospho-Tyrosine Kinase Kit (Green) supplied by Invitrogen. When FLT3 phosphorylates polyGlu4Tyr, the fluorescein-labeled phosphopeptide is displaced from the anti-phosphotyrosine antibody by the phosphorylated poly Glu4Tyr, thus decreasing the FP value. The FLT3 kinase reaction is incubated at room temperature for 30 minutes under the following conditions: 10 nM FLT3 571-993, 20 ug/mL poly Glu4Tyr, 150 uM ATP, 5 mM MgCl2, 1% compound in DMSO. The kinase reaction is stopped with the addition of EDTA. The fluorescein-labeled phosphopeptide and the anti-phosphotyrosine antibody are added and incubated for 30 minutes at room temperature.
All data points are an average of triplicate samples. Inhibition and IC50 data analysis was done with GraphPad Prism using a non-linear regression fit with a multiparamater, sigmoidal dose-response (variable slope) equation.

Compound | IC50 [1] | IC50 [2]
COc1cc2ncnc(C3CCN(C(=O)Nc4ccc(C(C)C)cc4)CC3)c2cc1OC [Example 4, 4-(6,7-Dimethoxy-quinazolin-4-yl)-piperidine-1-carboxylic acid (4-isopropyl-phenyl)-amide] | 86 nM | 9 nM
CC(C)Oc1ccc(NC(=O)N2CCC(c3ccnc4ccccc34)CC2)cc1 [Example 6, 4-Quinolin-4-yl-piperidine-1-carboxylic acid (4-isopropoxy-phenyl)-amide] | 280 nM | 84 nM
CC(C)c1ccc(NC(=O)N2CCC(c3ncnc4ccccc34)CC2)cc1 [Example 7, 4-Quinazolin-4-yl-piperidine-1-carboxylic acid (4-isopropyl-phenyl)-amide] | 232 nM | 55 nM
CC(C)Oc1ccc(NC(=O)N2CCC(c3ncnc4ccccc34)CC2)cc1 [Example 8, 4-Quinazolin-4-yl-piperidine-1-carboxylic acid (4-isopropoxy-phenyl)-amide] | 533 nM | 200 nM
COc1cc2ncnc(C3CCN(CC(=O)Nc4ccc(C(C)C)cc4)CC3)c2cc1OC [Example 9, 2-[4-(6,7-Dimethoxy-quinazolin-4-yl)-piperidin-1-yl]-N-(4-isopropyl-phenyl)-acetamide] | 29 nM | 13 nM
COc1cc2ncnc(C3CCN(CC(=O)Nc4ccc(OC(C)C)cc4)CC3)c2cc1OC [Example 10, 2-[4-(6,7-Dimethoxy-quinazolin-4-yl)-piperidin-1-yl]-N-(4-isopropoxy-phenyl)-acetamide] | 171 nM | 42 nM
CC(C)Oc1ccc(NC(=O)N2CCC(c3ncnc4ccc(I)cc34)CC2)cc1 [Example 11, 4-(6-Iodo-quinazolin-4-yl)-piperidine-1-carboxylic acid (4-isopropoxy-phenyl)-amide] | 460 nM | 46 nM
CC(C)Oc1ccc(NC(=O)N2CCC(c3ncnc4ccc(C#CCO)cc34)CC2)cc1 [Example 12, 4-[6-(3-Hydroxy-prop-1-ynyl)-quinazolin-4-yl]-piperidine-1-carboxylic acid (4-isopropoxy-phenyl)-amide] | 149 nM | 32 nM
CCN(CC)CC#Cc1ccc2ncnc(C3CCN(C(=O)Nc4ccc(OC(C)C)cc4)CC3)c2c1 [Example 13, 4-[6-(3-Diethylamino-prop-1-ynyl)-quinazolin-4-yl]-piperidine-1-carboxylic acid (4-isopropoxy-phenyl)-amide] | 59 nM | 72 nM
CC(C)Oc1ccc(NC(=O)N2CCC(c3ncnc4ccc(C#CCN5CCCCC5)cc34)CC2)cc1 [Example 14, 4-[6-(3-Piperidin-1-yl-prop-1-ynyl)-quinazolin-4-yl]-piperidine-1-carboxylic acid (4-isopropoxy-phenyl)-amide] | 23 nM | 53 nM
CCCCc1ccc(NC(=O)N2CCC(c3ncnc4cc(OC)c(OC)cc34)CC2)cc1 [Example 43, 4-(6,7-Dimethoxy-quinazolin-4-yl)-piperidine-1-carboxylic acid (4-butyl-phenyl)-amide] | 197 nM | 24 nM
CCOc1ccc(NC(=O)N2CCC(c3ncnc4cc(OC)c(OC)cc34)CC2)cc1 [Example 44, 4-(6,7-Dimethoxy-quinazolin-4-yl)-piperidine-1-carboxylic acid (4-ethoxy-phenyl)-amide] | 725 nM | 150 nM
COc1cc2ncnc(C3CCN(C(=O)Nc4ccccc4)CC3)c2cc1OC [Example 45, 4-(6,7-Dimethoxy-quinazolin-4-yl)-piperidine-1-carboxylic acid phenylamide] | 16700 nM | 3700 nM
COc1cc2ncnc(C3CCN(C(=O)Nc4ccc(Oc5ccccc5)cc4)CC3)c2cc1OC [Example 47, 4-(6,7-Dimethoxy-quinazolin-4-yl)-piperidine-1-carboxylic acid (4-phenoxy-phenyl)-amide] | 122 nM | 35 nM
COc1cc2ncnc(C3CCN(C(=O)Nc4ccc(OC(F)F)cc4)CC3)c2cc1OC [Example 51, 4-(6,7-Dimethoxy-quinazolin-4-yl)-piperidine-1-carboxylic acid (4-difluoromethoxy-phenyl)-amide] | 306 nM | 160 nM
CCC(C)c1ccc(NC(=O)N2CCC(c3ncnc4cc(OC)c(OC)cc34)CC2)cc1 (stereo not shown) [Example 52, 4-(6,7-Dimethoxy-quinazolin-4-yl)-piperidine-1-carboxylic acid (4-sec-butyl-phenyl)-amide] | 7 nM | 19 nM
COc1cc2ncnc(C3CCN(C(=O)Nc4ccc(C(C)(C)C)cc4)CC3)c2cc1OC [Example 53, 4-(6,7-Dimethoxy-quinazolin-4-yl)-piperidine-1-carboxylic acid (4-tert-butyl-phenyl)-amide] | 48 nM | 15 nM
COc1cc2ncnc(C3CCN(C(=O)NC4CCC(C(C)(C)C)CC4)CC3)c2cc1OC (stereo not shown) [Example 54, 4-(6,7-Dimethoxy-quinazolin-4-yl)-piperidine-1-carboxylic acid (4-tert-butyl-cyclohexyl)-amide] | 224 nM | 170 nM
COc1cc2ncnc(C3CCN(C(=O)Nc4ccc(C(C)O)cc4)CC3)c2cc1OC (stereo not shown) [Example 55, 4-(6,7-Dimethoxy-quinazolin-4-yl)-piperidine-1-carboxylic acid [4-(1-hydroxy-ethyl)-phenyl]-amide] | 2600 nM | 1100 nM
COc1cc2ncnc(C3CCN(C(=O)Nc4ccc(OC(C)C)nc4)CC3)c2cc1OC [Example 56, 4-(6,7-Dimethoxy-quinazolin-4-yl)-piperidine-1-carboxylic acid (6-isopropoxy-pyridin-3-yl)-amide] | 189 nM | 30 nM
COc1cc2ncnc(C3CCN(C(=O)Nc4ccc(N5CCCC5=O)cc4)CC3)c2cc1OC [Example 57, 4-(6,7-Dimethoxy-quinazolin-4-yl)-piperidine-1-carboxylic acid [4-(2-oxo-pyrrolidin-1-yl)-phenyl]-amide] | 1200 nM | 700 nM
COc1cc2ncnc(C3CCN(C(=O)Nc4ccc(-c5cncnc5)cc4)CC3)c2cc1OC [Example 58, 4-(6,7-Dimethoxy-quinazolin-4-yl)-piperidine-1-carboxylic acid (4-pyrimidin-5-yl-phenyl)-amide] | 2000 nM | 2000 nM
COc1cc2ncnc(C3CCN(C(=O)Nc4ccc(-c5ccco5)cc4)CC3)c2cc1OC [Example 59, 4-(6,7-Dimethoxy-quinazolin-4-yl)-piperidine-1-carboxylic acid (4-furan-2-yl-phenyl)-amide] | 269 nM | 220 nM
COc1cc2ncnc(C3CCN(C(=O)Nc4ccc(-c5ccc(Cl)nc5)cc4)CC3)c2cc1OC [Example 60, 4-(6,7-Dimethoxy-quinazolin-4-yl)-piperidine-1-carboxylic acid [4-(6-chloro-pyridin-3-yl)-phenyl]-amide] | 1400 nM | 360 nM
COc1cc2ncnc(C3CCN(C(=O)Nc4ccc(C5=CCN(C(=O)OC(C)(C)C)CC5)cc4)CC3)c2cc1OC [Example 61, 4-(4-{[4-(6,7-Dimethoxy-quinazolin-4-yl)-piperidine-1-carbonyl]-amino}-phenyl)-3,6-dihydro-2H-pyridine-1-carboxylic acid tert-butyl ester] | 6000 nM | 8500 nM
COc1cc2ncnc(C3CCN(C(=O)Nc4ccc(C5=CCNCC5)cc4)CC3)c2cc1OC [Example 62, 4-(6,7-Dimethoxy-quinazolin-4-yl)-piperidine-1-carboxylic acid [4-(1,2,3,6-tetrahydro-pyridin-4-yl)-phenyl]-amide] | 7500 nM | > 10000 nM
